Measurements published in patent publication US10800816B2 (Baxalta GmbH, priority 2012, dated 2020).
*1 amine or outer side, *2 acyl side, *3 side chain or, on linkers, in order; H or OH if unused. Where a SMILES comes first, the peptide text is derived from it. Side-chain parts run from the residue outwards. [ ]: non-standard residue; d: D form. The star is where a group is joined. TTDA(Palmitoyl) = CCCCCCCCCCCCCCCC(=O)NCCCOCCOCCOCCCN*; Succinimide(1-Et,3-yl) = CCN1C(=O)CC(*)C1=O; Suc = O=C(CCC(=O)[*:2])[*:1]; Tle = CC(C)(C)[C@H](N)C(=O)O; Hexanoyl = CCCCCC(=O)*; Aib = CC(C)(N)C(=O)O; Acm = CC(=O)NC*

Experiments:
FIGURE 78K = experiment: FIGURE 78K
From the text: Table printed on a drawing sheet, FIGURE 78K

FIGURE 78J = experiment: FIGURE 78J
From the text: Table printed on a drawing sheet, FIGURE 78J
First reader's note: Part of a table series (FIGS. 78A-78AA); single-measurement columns hold several replicate values per cell, joined by blanks, next to the mean column (the first INHIBITION [%] column holds the mean).

[1] = system: FVIII-inhibited whole blood; experiment: Rotation thromboelastography (ROTEM) in whole blood; parameters: species or system human; settings: for coagulation parameters: Hem A / FVIII-inhibited human whole blood; for EC50: FVIII-inhibited, read-out: EC50, global hemostatic parameters
Method: Continuous visco-elastic assessment of human whole blood clot formation and firmness was performed by rotation thromboelastography with whole blood preparations in the presence or absence of peptides. […] Test samples were prepared by dissolving quantities of peptides in either DMSO or HEPES buffered saline (with or without 0.1% Tween 80).
Recordings were made using a ROTEM thromboelastography coagulation analyzer (Pentapharm, Munich, Germany) at 37° C. Briefly, blood is added into a disposable cuvette in a heated cuvette holder. A disposable pin (sensor) is fixed on the tip of a rotating axis. The axis is guided by a high precision ball bearing system and rotates back and forth. The axis is connected with a spring for the measurement of elasticity. The exact position of the axis is detected by the reflection of light on a small mirror on the axis. The loss of elasticity when the sample clots leads to a change in the rotation of the axis. The data obtained are computer analyzed and visualized in a thromboelastogram. […] An elasticity of approximately zero is observed before clot formation begins. Mirror image traces above and below the zero line indicate the effect of clot formation on the rotation of the axis.
The analytical set-up was as follows: to 20 μL of test sample or control, 300 μL of pre-warmed (37° C.) CTI treated citrated whole blood was added, followed by 20 μL of a 1:15 dilution of TF PRP reagent containing recombinant human tissue factor (rTF, 3 pM) (TS40, Thrombinoscope BV, Maastricht, The Netherlands). Coagulation was initiated by the addition of 20 μ200 mM CaCl2 (star-TEM®, Pentapharm, Munich, Germany) and recordings were allowed to proceed for at least 120 min. The final concentration of rTF in the assay was 11 or 44 fM.
The thromboelastographic parameters of clotting time (CT), clot formation time (CFT) and maximum clot firmness (MCF) were recorded in accordance with the manufacturer's instructions. CT is defined as the time from the start of measurement to the start of clot formation. CFT is defined as the time from the start of clot formation until an amplitude of 20 mm is reached. MCF is the maximum difference in amplitude between the two traces during the assay. The first derivative of the data of the thromboelastogram are plotted to obtain a graph of velocity (mm/s) against time (s). From this graph, the maximum velocity (maxV) is determined. The time at which the maximum velocity is obtained (maxV-t) is also determined.
This example describes a method for assessing clot formation in whole blood using rotation thromboelastography (ROTEM). The assay was performed as described in Example 8. The analytical set-up was as follows: 300 μL of pre-warmed (37° C.) CTI treated citrated whole blood was added to a peptide sample (10, 100, 1000 nM final assay concentration) or a control, followed by addition of a 1:15 dilution of TF PRP reagent containing recombinant human tissue factor (rTF, 3 pM) (TS40, Thrombinoscope BV, Maastricht, The Netherlands). In certain experiments, exogenous full length TFPI (flTFPI) at final concentrations of 2 or 10 nM was added to simulate flTFPI plasma levels of up to 50-fold over normal. Coagulation was initiated by the addition of 20 μL 200 mM CaCl2 (star-TEM®, Pentapharm, Munich, Germany) and recordings were allowed to proceed for at least 120 min. The final concentration of rTF in the assay was 44 fM. The thromboelastographic parameters of clotting time (CT), clot formation time (CFT) and maximum clot firmness (MCF) were recorded in accordance with the manufacturer's instructions. CT is defined as the time from the start of measurement to the start of clot formation. CFT is defined as the time from the start of clot formation until an amplitude of 20 mm is reached. MCF is the maximum difference in amplitude between the two traces during the assay.

TFPI = experiment: IC50 ELISA | Mean IC50 [nM]
From the text: Table printed on a drawing sheet, FIGURE 78Z
Head of the field: IC50 ELISA | Mean IC50 [nM]
First copying reader's note: Continued table: the first body row (45.67) belongs to a compound on the preceding sheet, the last row probably continues on the next sheet, and cells with several values list single replicates.

For “Hex-FQSKp-Cys(Acm)-VH-Tle-DaYFERL-Aib-AKLC(ME- 400MA)-NH2 [JBT00002534]”, the “24 h Human Plasma Stability | Mean Remaining [%]” value (FIGURE 78Z) was 59.83% and the “24 h Mouse Plasma Stability | Mean Remaining [%]” value (FIGURE 78Z) was 69.87%.

For “Ac-FQSKpNVHVDGYFERL-Aib-AKLC(ME-300MA)-NH2 [JBT00002328]”, the “24 h Human Plasma Stability | Mean Remaining [%]” value (FIGURE 78K) was 68.40% and the “24 h Mouse Plasma Stability | Mean Remaining [%]” value (FIGURE 78K) was 51.00%.

In the case of “Ac-FQSKpNVHVDGYFERL-Aib-AKLC(ME-120MA)-NH2 [JBT00002326]”, the “24 h Human Plasma Stability | Mean Remaining [%]” value (FIGURE 78J) is reported as 58.70% and the “24 h Mouse Plasma Stability | Mean Remaining [%]” value (FIGURE 78J) is reported as 57.20%.

For CCN1C(=O)CC(SC[C@H](NC(=O)[C@H](CC(C)C)NC(=O)[C@H](CCCCN)NC(=O)[C@H](C)NC(=O)C(C)(C)NC(=O)[C@H](CC(C)C)NC(=O)[C@H](CCCNC(=N)N)NC(=O)[C@H](CCC(=O)O)NC(=O)[C@H](Cc2ccccc2)NC(=O)[C@H](Cc2ccc(O)cc2)NC(=O)CNC(=O)[C@H](CC(=O)O)NC(=O)[C@@H](NC(=O)[C@H](Cc2c[nH]cn2)NC(=O)[C@@H](NC(=O)[C@H](CC(N)=O)NC(=O)[C@H]2CCCN2C(=O)[C@H](CCCCN)NC(=O)[C@H](CO)NC(=O)[C@H](CCC(N)=O)NC(=O)[C@H](Cc2ccccc2)NC(C)=O)C(C)C)C(C)C)C(N)=O)C1=O (stereo partly drawn) [JBT2317], the coagulation parameters [1] was “restored coagulation parameters in Hem A blood”, the “24 h Human Plasma Stability | Mean Remaining [%]” value (FIGURE 78J) was 23.77% and the “24 h Mouse Plasma Stability | Mean Remaining [%]” value (FIGURE 78J) was 15.95%.

With CCCCCCCCCCCCCCCC(=O)NCCCOCCOCCOCCCNC(=O)CCC(=O)NCCCC[C@H](NC(=O)[C@H](CC(C)C)NC(=O)[C@H](CCCCN)NC(=O)[C@H](C)NC(=O)C(C)(C)NC(=O)[C@H](CC(C)C)NC(=O)[C@H](CCCNC(=N)N)NC(=O)[C@H](CCC(=O)O)NC(=O)[C@H](Cc1ccccc1)NC(=O)[C@H](Cc1ccc(O)cc1)NC(=O)[C@@H](C)NC(=O)[C@H](CC(=O)O)NC(=O)[C@@H](NC(=O)[C@H](Cc1c[nH]cn1)NC(=O)[C@@H](NC(=O)[C@H](CSCNC(C)=O)NC(=O)[C@H]1CCCN1C(=O)[C@H](CCCCN)NC(=O)[C@H](CO)NC(=O)[C@H](CCC(N)=O)NC(=O)[C@H](Cc1ccccc1)NC(=O)CCCCC)C(C)C)C(C)(C)C)C(N)=O [JBT00002532, Hex-FQSKp-Cys(Acm)-VH-Tle-DaYFERL-Aib-AKLK(Ttds- Palm)--NH2] (Hexanoyl-FQSK[dP]C(Acm)VH[Tle]D[dA]YFERL[Aib]AKLK([Suc-TTDA(Palmitoyl)])-NH2) the “24 h Human Plasma Stability | Mean Remaining [%]” value (FIGURE 78Z) was 107.70%, the “24 h Mouse Plasma Stability | Mean Remaining [%]” value (FIGURE 78Z) was 67.50% and the IC50 (TFPI) was 36.7 nM.

For CSCC[C@@H]1NC(=O)[C@H](C)NC(=O)[C@@H](NC(=O)[C@H](Cc2c[nH]cn2)NC(=O)[C@H](Cc2c[nH]c3ccccc23)NC(=O)[C@H](CCCCN)NC(=O)[C@H](Cc2ccc(O)cc2)NC(=O)[C@H](Cc2ccc(O)cc2)NC(=O)[C@H](CO)NC(C)=O)CSSC[C@@H](C(=O)N[C@H](C(=O)N[C@@H](Cc2c[nH]c3ccccc23)C(=O)N[C@H](C(=O)N[C@@H](CCCCN)C(=O)N[C@@H](Cc2ccccc2)C(N)=O)C(C)C)C(C)C)NC(=O)[C@H]([C@@H](C)O)NC(=O)[C@H](CCSC)NC(=O)[C@H]([C@@H](C)O)NC(=O)CNC(=O)[C@H](CCCCN)NC(=O)[C@H](CCSC)NC(=O)[C@H](CC(=O)O)NC(=O)[C@H](CCCNC(=N)N)NC1=O [JBT1837], the EC50 [1] was 4 nM and the coagulation parameters [1] was “corrected blood coagulation parameters in FVIII-inhibited blood”.

For “Ac-FQSKpNVHVDGYFERL-Aib-AKLC(ME-200MA0B)-NH2 [JBT00002327]”, the “24 h Human Plasma Stability | Mean Remaining [%]” value (FIGURE 78K) was 76.50% and the “24 h Mouse Plasma Stability | Mean Remaining [%]” value (FIGURE 78K) was 65.50%.

In the case of “Ac-FQSKpNVHVDGYFERL-Aib-AKLC(ME-50MA)-NH2 [JBT00002325]”, the “24 h Human Plasma Stability | Mean Remaining [%]” value (FIGURE 78J) is reported as 67.60% and the “24 h Mouse Plasma Stability | Mean Remaining [%]” value (FIGURE 78J) is reported as 44.70%.

Molecule CCCCCC(=O)N[C@@H](Cc1ccccc1)C(=O)N[C@@H](CCC(N)=O)C(=O)N[C@@H](CO)C(=O)N[C@@H](CCCCN)C(=O)N1CCC[C@@H]1C(=O)N[C@@H](CSCNC(C)=O)C(=O)N[C@H](C(=O)N[C@@H](Cc1c[nH]cn1)C(=O)N[C@H](C(=O)N[C@@H](CC(=O)O)C(=O)N[C@H](C)C(=O)N[C@@H](Cc1ccc(O)cc1)C(=O)N[C@@H](Cc1ccccc1)C(=O)N[C@@H](CCC(=O)O)C(=O)N[C@@H](CCCNC(=N)N)C(=O)N[C@@H](CC(C)C)C(=O)NC(C)(C)C(=O)N[C@@H](C)C(=O)N[C@@H](CCCCN)C(=O)N[C@@H](CC(C)C)C(N)=O)C(C)(C)C)C(C)C [JBT2528, Hex-FQSKp-C(Acm)-VH-Tle-DaYFERL-Aib-AKL-NH2] (Hexanoyl-FQSK[dP]C(Acm)VH[Tle]D[dA]YFERL[Aib]AKL-NH2) has an EC50 [1] of 11 nM.

For “(Hex-FQSKp-Cys(Acm)-VH-Tle-DaYFERL-Aib-AKLC- NH2)2-M2TriO [JBT00002533]”, the “24 h Human Plasma Stability | Mean Remaining [%]” value (FIGURE 78Z) was 185.13% and the “24 h Mouse Plasma Stability | Mean Remaining [%]” value (FIGURE 78Z) was 52.65%.

For CCN1C(=O)CC(SC[C@H](NC(=O)[C@H](CC(C)C)NC(=O)[C@H](CCCCN)NC(=O)[C@H](C)NC(=O)C(C)(C)NC(=O)[C@H](CC(C)C)NC(=O)[C@H](CCCNC(=N)N)NC(=O)[C@H](CCC(=O)O)NC(=O)[C@H](Cc2ccccc2)NC(=O)[C@H](Cc2ccc(O)cc2)NC(=O)CNC(=O)[C@H](CC(=O)O)NC(=O)C(C)(C)NC(=O)[C@H](Cc2c[nH]cn2)NC(=O)[C@@H](NC(=O)[C@H](CC(N)=O)NC(=O)[C@H]2CCCN2C(=O)[C@H](CCCCN)NC(=O)[C@H](CO)NC(=O)[C@H](CCC(N)=O)NC(=O)[C@H](Cc2ccccc2)NC(C)=O)C(C)C)C(N)=O)C1=O (stereo partly drawn) [JBT00002385, Ac-FQSKpNVH-Aib-DGYFERL-Aib-AKLC(NEM)-NH2], the “24 h Human Plasma Stability | Mean Remaining [%]” value (FIGURE 78M) was 51.50%.

For CCCCCC(=O)N[C@@H](Cc1ccccc1)C(=O)N[C@@H](CCC(N)=O)C(=O)N[C@@H](CO)C(=O)N[C@@H](CCCCN)C(=O)N1CCC[C@@H]1C(=O)N[C@@H](CSCNC(C)=O)C(=O)N[C@H](C(=O)N[C@@H](Cc1c[nH]cn1)C(=O)N[C@H](C(=O)N[C@@H](CC(=O)O)C(=O)N[C@H](C)C(=O)N[C@@H](Cc1ccc(O)cc1)C(=O)N[C@@H](Cc1ccccc1)C(=O)N[C@@H](CCC(=O)O)C(=O)N[C@@H](CCCNC(=N)N)C(=O)N[C@@H](CC(C)C)C(=O)NC(C)(C)C(=O)N[C@@H](C)C(=O)N[C@@H](CCCCN)C(=O)N[C@@H](CC(C)C)C(=O)N[C@@H](CSC1CC(=O)N(CC)C1=O)C(N)=O)C(C)(C)C)C(C)C (stereo partly drawn) [JBT00002537, Hex-FQSKp-Cys(Acm)-VH-Tle-DaYFERL-Aib-AKLC(NEM)- NH2] (Hexanoyl-FQSK[dP]C(Acm)VH[Tle]D[dA]YFERL[Aib]AKLC(Succinimide(1-Et,3-yl))-NH2), the “24 h Human Plasma Stability | Mean Remaining [%]” value (FIGURE 78Z) was 106.65% and the IC50 (TFPI) was 7.13 nM.
